Experimental data published in publication PMC5513037, “Examining the influence of specificity ligands and ATP-competitive ligands on the overall effectiveness of bivalent kinase inhibitors” (Proteome Science, 2017).

Key:
Assay in all cases: KAM-matrix competition in K562 lysate
Assay type in all cases: binding
FAM20B = biological target: T1, FAM20B (Homo sapiens, UniProt O75063);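 as to 0.001 uM KAM: median log10 fold change of treatment over DMSO control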;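 as to 0.01 uM KAM: median log10 fold change of treatment over DMSO control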;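 as to 0.1 uM KAM: median log10 fold change of treatment over DMSO control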;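 as to 1 uM KAM: median log10 fold change of treatment over DMSO control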;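 as to 10 uM KAM: median log10 fold change of treatment over DMSO control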
T1 construct: endogenous in cells; host or cells: K562
T1 sequence (O75063 1-409): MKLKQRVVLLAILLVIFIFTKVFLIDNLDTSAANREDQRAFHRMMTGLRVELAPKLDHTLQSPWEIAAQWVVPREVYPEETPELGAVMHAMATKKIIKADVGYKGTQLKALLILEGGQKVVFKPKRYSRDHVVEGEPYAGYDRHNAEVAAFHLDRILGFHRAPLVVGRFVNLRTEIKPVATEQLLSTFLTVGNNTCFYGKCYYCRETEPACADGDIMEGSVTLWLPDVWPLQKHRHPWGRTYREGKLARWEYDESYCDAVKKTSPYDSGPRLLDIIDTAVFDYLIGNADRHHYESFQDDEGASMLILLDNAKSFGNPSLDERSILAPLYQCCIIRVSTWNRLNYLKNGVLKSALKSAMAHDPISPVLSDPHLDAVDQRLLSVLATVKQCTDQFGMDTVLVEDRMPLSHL
Procedure: Supplement 12953_2017_125_MOESM1_ESM.zip/MS_Supp Info.xlsx, sheet "KAM" | column: 10 uM KAM; 1 uM KAM; 0.1 uM KAM; 0.01 uM KAM; 0.001 uM KAM; RB50

NEK9 = biological target: T2, NEK9 (Homo sapiens, UniProt Q8TD19)
T2 construct: endogenous in cells; host or cells: K562
T2 sequence (Q8TD19 1-979): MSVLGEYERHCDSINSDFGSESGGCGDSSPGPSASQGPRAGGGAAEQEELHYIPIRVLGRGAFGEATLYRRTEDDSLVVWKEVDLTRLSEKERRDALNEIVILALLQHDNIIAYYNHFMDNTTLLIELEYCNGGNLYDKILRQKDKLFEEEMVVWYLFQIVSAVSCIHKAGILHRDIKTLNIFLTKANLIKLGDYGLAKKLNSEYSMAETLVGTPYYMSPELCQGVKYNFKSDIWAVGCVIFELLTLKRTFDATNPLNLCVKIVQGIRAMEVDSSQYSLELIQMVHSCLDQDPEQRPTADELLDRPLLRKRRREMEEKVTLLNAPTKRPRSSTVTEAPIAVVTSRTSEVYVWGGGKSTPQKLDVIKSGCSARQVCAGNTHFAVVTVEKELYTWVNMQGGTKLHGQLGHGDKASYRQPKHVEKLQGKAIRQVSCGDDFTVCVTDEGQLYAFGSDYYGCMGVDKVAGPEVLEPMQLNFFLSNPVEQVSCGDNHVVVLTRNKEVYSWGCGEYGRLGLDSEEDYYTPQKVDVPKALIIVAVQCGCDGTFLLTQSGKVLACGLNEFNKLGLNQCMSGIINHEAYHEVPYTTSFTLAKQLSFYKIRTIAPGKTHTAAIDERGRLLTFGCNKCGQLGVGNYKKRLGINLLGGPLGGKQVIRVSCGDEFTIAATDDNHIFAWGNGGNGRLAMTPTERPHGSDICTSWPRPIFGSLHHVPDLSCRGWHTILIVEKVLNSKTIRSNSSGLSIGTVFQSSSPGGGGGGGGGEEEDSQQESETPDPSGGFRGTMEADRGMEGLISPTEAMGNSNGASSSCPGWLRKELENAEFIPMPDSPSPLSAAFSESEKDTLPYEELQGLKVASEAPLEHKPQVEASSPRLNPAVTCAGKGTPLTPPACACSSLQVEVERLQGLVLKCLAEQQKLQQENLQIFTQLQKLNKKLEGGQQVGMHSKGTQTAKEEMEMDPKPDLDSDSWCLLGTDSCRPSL
Procedure: (§1) For synthesis of KAM-derivatized resin, packed NHS-activated sepharose 4 fast flow resin (volume = 2 mL; GE Healthcare) was washed with anhydrous DMSO (3 × 10 mL). To the washed NHS-activated sepharose resin was added 0.5 mM KAM in anhydrous DMSO (8 mL; 2 μmol compound/mL of resin), followed by the addition of triethylamine (30 μL). The reaction mixture was vortexed to mix and pelleted by centrifugation (100 x g, 2 min). An aliquot of the supernatant (50 μL) was saved for LC/MS analysis. The reaction mixture was allowed incubate overnight at room temp with end-over-end rotating agitation. On the following day, the reaction mixture was pelleted by centrifugation (100 x g, 2 min). An aliquot of the supernatant (50 μL) was saved for LC/MS analysis. […] 2-(2-Aminoethoxy)ethanol (100 μL; Sigma-Aldrich) was added to the reaction mixture, vortexed, and incubate overnight at room temp with end-over-end agitation. The KAM-derivatized resin was then washed with anhydrous DMSO (3 × 10 mL) and 95% EtOH (3 × 10 mL).
(§2) Data were visualized for further analysis using Spotfire DXP.

CDK9 = biological target: T3, CDK9 (Homo sapiens, UniProt P50750)
T3 construct: endogenous in cells; host or cells: K562
T3 sequence (P50750 whole entry): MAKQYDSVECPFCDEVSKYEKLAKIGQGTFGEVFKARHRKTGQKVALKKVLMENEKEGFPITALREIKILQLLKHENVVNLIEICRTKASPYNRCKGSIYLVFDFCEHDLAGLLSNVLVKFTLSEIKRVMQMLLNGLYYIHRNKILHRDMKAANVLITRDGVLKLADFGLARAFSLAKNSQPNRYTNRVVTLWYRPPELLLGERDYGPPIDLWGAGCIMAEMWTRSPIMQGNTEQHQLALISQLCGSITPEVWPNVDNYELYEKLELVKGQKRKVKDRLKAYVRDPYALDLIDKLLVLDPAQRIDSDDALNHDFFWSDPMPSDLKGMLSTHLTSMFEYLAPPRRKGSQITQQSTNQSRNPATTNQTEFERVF
T3 sequence (O60563 whole entry partner): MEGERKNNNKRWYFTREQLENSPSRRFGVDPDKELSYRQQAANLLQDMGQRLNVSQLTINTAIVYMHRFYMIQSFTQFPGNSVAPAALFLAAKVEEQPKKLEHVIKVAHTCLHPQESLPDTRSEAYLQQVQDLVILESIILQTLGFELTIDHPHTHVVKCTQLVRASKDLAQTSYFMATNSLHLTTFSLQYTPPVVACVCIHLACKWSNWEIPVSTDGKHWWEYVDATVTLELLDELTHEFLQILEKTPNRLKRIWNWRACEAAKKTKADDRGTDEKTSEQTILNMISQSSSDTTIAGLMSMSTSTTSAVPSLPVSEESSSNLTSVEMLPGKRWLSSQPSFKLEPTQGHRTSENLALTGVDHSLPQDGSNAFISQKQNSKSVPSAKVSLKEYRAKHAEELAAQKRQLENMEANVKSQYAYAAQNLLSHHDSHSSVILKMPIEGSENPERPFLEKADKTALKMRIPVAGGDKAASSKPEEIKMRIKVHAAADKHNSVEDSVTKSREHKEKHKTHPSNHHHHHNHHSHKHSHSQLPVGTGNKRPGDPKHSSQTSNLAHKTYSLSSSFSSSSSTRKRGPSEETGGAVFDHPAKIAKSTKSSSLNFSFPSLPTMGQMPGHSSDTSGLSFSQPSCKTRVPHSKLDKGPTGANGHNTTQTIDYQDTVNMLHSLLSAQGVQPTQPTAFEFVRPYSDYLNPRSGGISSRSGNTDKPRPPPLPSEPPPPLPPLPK
Procedure: as §1, §2

GSK3A = biological target: T4, GSK3A (Homo sapiens, UniProt P49840)
T4 construct: endogenous in cells; host or cells: K562
T4 sequence (P49840 whole entry): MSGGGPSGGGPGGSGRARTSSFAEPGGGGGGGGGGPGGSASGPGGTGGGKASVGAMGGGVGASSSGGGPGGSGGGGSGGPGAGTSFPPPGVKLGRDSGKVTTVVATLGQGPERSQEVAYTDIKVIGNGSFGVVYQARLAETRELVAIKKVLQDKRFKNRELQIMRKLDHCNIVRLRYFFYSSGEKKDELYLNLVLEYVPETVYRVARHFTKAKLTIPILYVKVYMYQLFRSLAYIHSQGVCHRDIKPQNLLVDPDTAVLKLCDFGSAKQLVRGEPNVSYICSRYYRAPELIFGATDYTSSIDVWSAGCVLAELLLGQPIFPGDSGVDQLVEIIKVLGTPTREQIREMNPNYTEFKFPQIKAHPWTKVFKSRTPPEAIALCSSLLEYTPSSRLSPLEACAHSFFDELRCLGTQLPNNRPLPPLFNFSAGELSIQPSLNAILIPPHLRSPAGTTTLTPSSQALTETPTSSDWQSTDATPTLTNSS
Procedure: as §1, §2

CDK6 = biological target: T5, CDK6 (Homo sapiens, UniProt Q00534); details: relative to 0 uM KAM = 0;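 also: median log10 fold change of treatment over DMSO control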
T5 construct: endogenous in cells; host or cells: K562
T5 sequence (Q00534 whole entry): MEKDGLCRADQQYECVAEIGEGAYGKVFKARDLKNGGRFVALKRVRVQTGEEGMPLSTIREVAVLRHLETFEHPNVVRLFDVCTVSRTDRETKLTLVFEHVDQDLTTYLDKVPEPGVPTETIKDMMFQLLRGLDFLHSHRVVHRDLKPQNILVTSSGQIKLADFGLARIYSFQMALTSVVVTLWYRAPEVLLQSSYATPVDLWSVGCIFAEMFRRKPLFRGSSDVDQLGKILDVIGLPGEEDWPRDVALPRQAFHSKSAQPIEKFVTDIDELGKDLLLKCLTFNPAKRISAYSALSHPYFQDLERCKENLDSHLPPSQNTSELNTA
Procedure: (§3) Supplement 12953_2017_125_MOESM1_ESM.zip/MS_Supp Info.xlsx, sheet "KAM" | column: 10 uM KAM; 1 uM KAM; 0.1 uM KAM; 0.001 uM KAM

MAP3K11 = biological target: T6, MAP3K11 (Homo sapiens, UniProt Q16584); details: relative to 0 uM KAM = 0;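 also: median log10 fold change of treatment over DMSO control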
T6 construct: endogenous in cells; host or cells: K562
T6 sequence (Q16584 whole entry): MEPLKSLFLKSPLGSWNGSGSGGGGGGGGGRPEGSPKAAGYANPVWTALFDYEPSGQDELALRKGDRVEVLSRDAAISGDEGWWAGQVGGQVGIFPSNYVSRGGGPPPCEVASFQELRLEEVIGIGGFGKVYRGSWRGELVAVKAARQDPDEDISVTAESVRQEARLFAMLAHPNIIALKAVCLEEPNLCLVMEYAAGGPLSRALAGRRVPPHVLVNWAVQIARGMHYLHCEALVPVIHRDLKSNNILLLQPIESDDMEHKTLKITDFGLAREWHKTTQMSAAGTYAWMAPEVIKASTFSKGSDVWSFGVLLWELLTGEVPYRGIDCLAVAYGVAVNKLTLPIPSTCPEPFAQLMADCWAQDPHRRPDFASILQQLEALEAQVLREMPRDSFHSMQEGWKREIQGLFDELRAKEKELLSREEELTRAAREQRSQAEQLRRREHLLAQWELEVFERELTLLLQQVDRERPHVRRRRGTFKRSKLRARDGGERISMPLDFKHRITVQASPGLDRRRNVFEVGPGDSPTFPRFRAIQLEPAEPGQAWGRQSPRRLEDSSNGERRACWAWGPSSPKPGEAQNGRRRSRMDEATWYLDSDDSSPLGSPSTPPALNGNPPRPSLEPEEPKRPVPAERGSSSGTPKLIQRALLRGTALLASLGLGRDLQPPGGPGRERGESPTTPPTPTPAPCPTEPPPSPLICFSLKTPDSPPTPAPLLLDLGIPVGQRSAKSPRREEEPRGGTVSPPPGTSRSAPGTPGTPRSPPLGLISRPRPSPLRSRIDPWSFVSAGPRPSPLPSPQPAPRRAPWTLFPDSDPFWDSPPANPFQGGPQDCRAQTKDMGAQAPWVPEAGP
Procedure: as §3

TAF1L = biological target: T7, TAF1L (Homo sapiens, UniProt Q8IZX4); details: relative to 0 uM KAM = 0;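 also: median log10 fold change of treatment over DMSO control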
T7 construct: endogenous in cells; host or cells: K562
T7 sequence (Q8IZX4 whole entry): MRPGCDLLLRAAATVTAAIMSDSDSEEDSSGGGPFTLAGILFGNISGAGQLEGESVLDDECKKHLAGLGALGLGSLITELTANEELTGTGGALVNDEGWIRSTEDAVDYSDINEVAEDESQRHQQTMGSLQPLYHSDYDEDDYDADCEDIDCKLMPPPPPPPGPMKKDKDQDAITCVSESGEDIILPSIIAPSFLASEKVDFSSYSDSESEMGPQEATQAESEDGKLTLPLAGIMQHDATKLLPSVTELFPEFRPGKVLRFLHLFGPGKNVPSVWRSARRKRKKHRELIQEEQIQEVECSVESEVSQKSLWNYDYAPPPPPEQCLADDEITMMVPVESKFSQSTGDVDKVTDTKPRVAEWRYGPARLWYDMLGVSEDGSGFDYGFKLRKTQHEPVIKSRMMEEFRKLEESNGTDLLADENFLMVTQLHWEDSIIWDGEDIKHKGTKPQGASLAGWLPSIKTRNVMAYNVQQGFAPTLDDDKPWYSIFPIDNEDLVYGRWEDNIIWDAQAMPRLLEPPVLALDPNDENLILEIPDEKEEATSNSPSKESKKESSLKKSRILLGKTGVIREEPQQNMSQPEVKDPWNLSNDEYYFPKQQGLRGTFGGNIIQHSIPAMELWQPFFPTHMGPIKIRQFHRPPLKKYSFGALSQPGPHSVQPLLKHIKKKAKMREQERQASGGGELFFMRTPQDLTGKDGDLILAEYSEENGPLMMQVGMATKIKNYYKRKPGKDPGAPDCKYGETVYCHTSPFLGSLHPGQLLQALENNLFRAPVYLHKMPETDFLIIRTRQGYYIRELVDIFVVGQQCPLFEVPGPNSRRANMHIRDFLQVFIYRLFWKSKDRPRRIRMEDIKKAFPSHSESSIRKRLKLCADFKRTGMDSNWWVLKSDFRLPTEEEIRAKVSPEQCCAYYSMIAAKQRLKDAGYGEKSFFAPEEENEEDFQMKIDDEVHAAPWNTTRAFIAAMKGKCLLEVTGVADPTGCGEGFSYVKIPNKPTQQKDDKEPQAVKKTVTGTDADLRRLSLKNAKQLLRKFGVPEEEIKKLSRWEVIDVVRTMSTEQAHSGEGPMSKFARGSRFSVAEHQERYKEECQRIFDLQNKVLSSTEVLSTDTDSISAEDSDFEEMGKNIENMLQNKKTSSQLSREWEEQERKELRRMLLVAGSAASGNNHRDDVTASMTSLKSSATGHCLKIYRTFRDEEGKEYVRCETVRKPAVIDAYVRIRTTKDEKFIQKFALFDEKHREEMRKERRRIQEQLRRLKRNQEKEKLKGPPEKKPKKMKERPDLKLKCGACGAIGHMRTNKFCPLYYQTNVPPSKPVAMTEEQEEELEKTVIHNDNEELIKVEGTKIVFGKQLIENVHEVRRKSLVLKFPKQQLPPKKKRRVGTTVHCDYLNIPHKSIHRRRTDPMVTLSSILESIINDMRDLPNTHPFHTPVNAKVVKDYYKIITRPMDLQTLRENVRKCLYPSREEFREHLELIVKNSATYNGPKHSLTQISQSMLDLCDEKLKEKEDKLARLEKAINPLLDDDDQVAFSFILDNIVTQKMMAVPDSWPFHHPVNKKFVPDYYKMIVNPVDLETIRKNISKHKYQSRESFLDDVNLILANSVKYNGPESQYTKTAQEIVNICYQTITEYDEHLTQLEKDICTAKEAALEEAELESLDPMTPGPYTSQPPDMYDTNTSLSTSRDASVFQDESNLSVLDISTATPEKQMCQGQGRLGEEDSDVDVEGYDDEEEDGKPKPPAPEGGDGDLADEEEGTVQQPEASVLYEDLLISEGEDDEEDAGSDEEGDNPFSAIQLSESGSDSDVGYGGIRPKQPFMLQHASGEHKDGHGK
Procedure: Supplement 12953_2017_125_MOESM1_ESM.zip/MS_Supp Info.xlsx, sheet "KAM" | column: 1 uM KAM; 0.01 uM KAM

In the case of `N#CCc1ccc(Nc2nc(NCCCN)cc(Nc3cc(C4CC4)[nH]n3)n2)cc1` [KAM], the IC50 (FAM20B; KAM 0.001-10 uM, read-out: RB50 (the source's name)) is reported as > 10000 nM, the “0.001 uM KAM” value (FAM20B; relative to 0 uM KAM = 0) is reported as -0.03245 and the “0.01 uM KAM” value (FAM20B; relative to 0 uM KAM = 0) is reported as -0.03308. For the same compound, the “0.1 uM KAM” value (FAM20B; relative to 0 uM KAM = 0) was -0.01554, the “1 uM KAM” value (FAM20B; relative to 0 uM KAM = 0) was -0.05098 and the “10 uM KAM” value (FAM20B; relative to 0 uM KAM = 0) was 0.1003. The “median Log10 fold change” value (NEK9; 0.001 uM KAM) was 0.04943, the “median Log10 fold change” value (NEK9; 0.01 uM KAM) was -0.06045 and the “median Log10 fold change” value (NEK9; 0.1 uM KAM) was -0.3899. The “median Log10 fold change” value (NEK9; 1 uM KAM) was -0.6054, the “median Log10 fold change” value (NEK9; 10 uM KAM) was -0.6016 and the IC50 (NEK9; NEK9, KAM-based affinity matrix, K562 lysates, read-out: RB50 (the source's name)) was 86 nM. The “median Log10 fold change” value (CDK9; 0.001 uM KAM) was -0.01348, the “median Log10 fold change” value (CDK9; 0.01 uM KAM) was -0.02502 and the “median Log10 fold change” value (CDK9; 0.1 uM KAM) was -0.3345. For the same compound, the “median Log10 fold change” value (CDK9; 1 uM KAM) was -0.6226, the “median Log10 fold change” value (CDK9; 10 uM KAM) was -0.7136 and the IC50 (CDK9; CDK9, KAM-based affinity matrix, K562 lysates, read-out: RB50 (the source's name)) was 112 nM. For the same compound, the “median Log10 fold change” value (GSK3A; 0.001 uM KAM) was 0.002359, the “median Log10 fold change” value (GSK3A; 0.01 uM KAM) was -0.1849 and the “median Log10 fold change” value (GSK3A; 0.1 uM KAM) was -0.4791. The “median Log10 fold change” value (GSK3A; 1 uM KAM) was -0.5469, the “median Log10 fold change” value (GSK3A; 10 uM KAM) was -0.4904 and the IC50 (GSK3A; GSK3A, KAM-based affinity matrix, K562 lysates, read-out: RB50 (the source's name)) was 37 nM. The “0.001 uM KAM” value (CDK6) was 0.01418, the “0.1 uM KAM” value (CDK6) was -0.05531 and the “1 uM KAM” value (CDK6) was -0.08871. For the same compound, the “10 uM KAM” value (CDK6) was -0.05328, the “0.001 uM KAM” value (MAP3K11) was -0.02883 and the “0.1 uM KAM” value (MAP3K11) was -0.2112. The “1 uM KAM” value (MAP3K11) was -0.4525, the “10 uM KAM” value (MAP3K11) was -0.59 and the “0.01 uM KAM” value (TAF1L) was 0.1793. For the same compound, the “1 uM KAM” value (TAF1L) was -0.2683.
